Measurements taken from patent US12447187B2, “Composition for preventing and treating inflammatory bowel disease including puer tea extract” (priority 2021, dated 2025).

Test system: DSS-induced ulcerative colitis
Assay: DSS-induced ulcerative colitis model (body weight, colon length, histology, DAI)
Type: in vivo, ICR mice
Details: 3% DSS mice
Method: Experimental animals, ICR mice (6 weeks old male) were supplied from Daehan Biolink (Chungcheongbuk-do Province, Korea) and used. After 1 week of adaptation of experimental animals, 7 animals were accommodated in each group. During the experiment, the breeding conditions were 23±2° C. for a temperature, 55±10% for a relative humidity, and 150 to 300 Lux for lighting with a 12-hour cycle (artificial lighting, 8:00 am-8:00 pm). Feed was powdered feed for laboratory animals, and water was provided freely during the experiment period. Acute ulcerative colitis was induced in mice while allowing free intake of water containing 3% (w/v) of DDS for 14 days. During the experiment, each group of experimental animals was observed by checking whether the mice lost weight, urine and feces tests, and bleeding every day. Experimental animals were classified into the following four groups and the experiment was performed (Table 1). Puer tea extract and ASA were orally administered once a day for 14 days from the day of DDS treatment. After the experiment, mice were sacrificed, and the results were measured. Ulcerative colitis is measured by clinical signs such as weight loss, diarrhea with bleeding and mucus, and shortens the length of the colon. […] Weight loss is calculated as the difference between the initial and present weight. Visible rectal bleeding means diarrhea accompanied by bleeding or total rectal bleeding, and the DAI was calculated by the following equation. […] Puer tea extract (100 mg/kg) was orally administered once a day to 7 mice induced with 3% DSS for 14 days, and then the weights of the mice were measured, and the mean of the data in the triplicate experiment was expressed as ±S.D. Puer tea extract (100 mg/kg) was orally administered once a day for 14 days to 7 mice induced with 3% DSS for 14 days, and then the colon was removed, and the colon length was evaluated (A of FIG. 2). […] DAI was calculated as in Examples 1-5), and the mean of the experimental data was expressed as ±SD.

In the case of 5-acetylsalicylic acid [5-ASA], the colon length (100 mg/kg orally once a day for 14 days, normal group 8.01±0.16, DSS group 5.25±0.12) is reported as 6.77±0.33 cm, the “thickness of the barrier muscle layer (H&E colon sections)” value (14 days, vs DSS group) is reported as “became thinner again” and the “DAI clinical symptoms (weight loss, diarrhea, rectal bleeding)” value (once a day for 14 days, vs DSS single treatment) is reported as “significantly decreased”.
